# Data reported in the supplement of paper PMC5580409.
# System: Plasmodium falciparum 3D7
# Assay: pEC50, asexual blood-stage growth inhibition
# Settings: 72 h
# Protocol: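 Held-out test set measured in the Guy lab in 2014 with the same procedure as the primary St. Jude screen. P. falciparum 3D7 blood-stage culture (2% hematocrit, 1% parasitemia) was treated with compound for 72 h at 37 °C, and growth was read by SYBR Green I fluorescence. EC50 came from a four-parameter Hill fit over a 10-point dilution series […].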
row,SMILES,pEC50
1,COc1cc(OC)c([N+](=O)[O-])cc1/C=N/NC(=O)C1CC1(c1ccccc1)c1ccccc1 (stereo not given),< 4.82
2,OC(CNc1ccccc1)Cn1c2ccc(Cl)cc2c2cc(Cl)ccc21 (stereo not given),5.36
3,CCOc1cc(C2C(C(=O)OCC(C)C)=C(C)NC3=C2C(=O)CC(c2ccc(Cl)cc2)C3)ccc1O (stereo not given),< 4.82
4,CCOc1ccc(C(O)Cn2c(=N)n(CCN3CCCCC3)c3ccccc32)cc1 (stereo not given),< 4.82
5,COc1ccc(C(O)Cn2c(=N)n(CCN3CCCCC3)c3ccccc32)cc1 (stereo not given),< 4.82
6,Cc1cccc(NCC(O)Cn2c3ccc(Br)cc3c3cc(Br)ccc32)c1C (stereo not given),5.21
7,COc1ccc(N2CCN(C(=O)c3ccc(C)cc3)CC2)c([N+](=O)[O-])c1,5.23
8,COc1ccc(CN2CCCn3c4c(c5cc(C)ccc53)CCCC42)cc1 (stereo not given),< 4.82
9,Cc1ccc(C)c(OCC(O)CNC2CCCC2)c1 (stereo not given),< 4.82
10,OC(CNc1cccc2ccccc12)Cn1c2ccc(Cl)cc2c2cc(Cl)ccc21 (stereo not given),5.36
11,CCN1CCN(Cc2c(O)ccc3c(=O)c(Oc4ccccc4Br)c(C(F)(F)F)oc23)CC1,5.46
12,CCN(CC)CCN1C(=O)c2ccccc2NC1c1ccc(Br)cc1 (stereo not given),5.74
13,Cc1cccc(NC(=O)/C=C/c2ccccc2Cl)c1,< 4.82
14,OC(CNCC1CCCO1)Cn1c2ccc(Br)cc2c2cc(Br)ccc21 (stereo not given),5.76
15,OC(CNCc1cccc(Cl)c1)c1ccccc1 (stereo not given),< 4.82
16,COc1ccccc1-c1c(C(F)(F)F)oc2c(CN3CCCC3)c(O)ccc2c1=O,< 4.82
17,CC(C)c1ccc(/C=C/C(=O)Nc2cccc(F)c2)cc1,< 4.82
18,CCOC(=O)c1cccc(NC(=O)CC2C(=O)N(c3ccc(F)cc3)C(=O)N2Cc2ccccn2)c1 (stereo not given),< 4.82
19,Fc1ccccc1N1CCN(CC2CC3C=CC2C3)CC1 (stereo not given),< 4.82
20,Cc1cc(Cl)ccc1OCC(O)CNC1CCCC1 (stereo not given),5.18
21,Cc1cccc(Oc2c(C(F)(F)F)oc3c(CN4CCN(C)CC4)c(O)ccc3c2=O)c1,5.27
22,CCC(C)c1ccc(NC(=O)/C=C/c2cccc(Cl)c2)cc1 (stereo not given),< 4.82
23,Cc1ccc(C)c(NCC(O)Cn2c3ccccc3c3ccccc32)c1 (stereo not given),< 4.82
24,CN1CCN(CC(O)Cn2c3ccccc3c3cc(Cl)ccc32)CC1 (stereo not given),< 4.82
25,COc1ccc(CN2CCCn3c4c(c5cc(C)ccc53)CCCC42)c(OC)c1 (stereo not given),< 4.82
26,COC(=O)c1ccc(NC(=O)/C=C/c2ccccc2Cl)cc1,5.26
27,CCOc1cc(C2C(C(=O)OCCOc3ccccc3)=C(C)NC3=C2C(=O)CC(c2ccc(Cl)cc2)C3)cc(Cl)c1O (stereo not given),< 4.82

row,SMILES,pEC50
1,CC[n+]1c(/C=C/c2cc(C)n(-c3ccccc3)c2C)sc2ccccc21,< 4.82
2,Cc1ccccc1NCC(O)Cn1c2ccc(Cl)cc2c2cc(Cl)ccc21 (stereo not given),5.44
3,Cc1cccc2c(C(=O)N3CCN(Cc4ccccc4)CC3)cc(-c3cccnc3)nc12,5.25
4,CCOC(=O)c1cnc2c(C)cccc2c1Nc1cccc(C(C)=O)c1,5.35
5,CCN(CC)CC(O)COc1ccc(CNC2CCCCC2)cc1OC (stereo not given),< 4.82
6,CC(C)(CO)NCC(O)Cn1c2ccc(Cl)cc2c2cc(Cl)ccc21 (stereo not given),5.29
7,CC(=O)Nc1cccc(Nc2nc(N3CCCCC3)nc(N(c3ccccc3)c3ccccc3)n2)c1,5.61
8,O=C(Cc1cccc2ccccc12)Nc1ccc(-c2nc3ccccc3[nH]2)cc1,5.57
9,COc1ccc(CN2CCCn3c4c(c5cc(C)ccc53)CCCC42)cc1O (stereo not given),< 4.82
10,Clc1ccc(CN2CCN(C3CC4CCC3C4)CC2)cc1 (stereo not given),< 4.82
11,Cc1cccc(Oc2c(C(F)(F)F)oc3c(CN4CCC(C)CC4)c(O)ccc3c2=O)c1,< 4.82
12,CN(C)Cc1c(O)ccc2c(=O)c(Oc3ccc(C(C)(C)C)cc3)c(C(F)(F)F)oc12,5.24
13,CCCCN(CCCC)CC(O)COc1ccccc1C (stereo not given),6.06
14,C=CCn1nnnc1NCc1cc(Cl)c(OC)c(OC)c1,< 4.82
15,CC(Nc1cc(N2CCN(C(=O)c3ccccc3)CC2)ccc1[N+](=O)[O-])c1ccccc1 (stereo not given),6.18
16,O=C(Cc1ccccc1)Nc1ccc(-c2nc3cc(-c4nc5cc(NC(=O)Cc6ccccc6)ccc5[nH]4)ccc3[nH]2)cc1,< 4.82
17,CC(C)(C)C(=O)N1CCN(C(c2ccccc2)c2ccccc2)CC1,< 4.82
18,Cc1cccc(C2(c3cccc(C)c3)CC2C(=O)Nc2cc([N+](=O)[O-])ccc2O)c1 (stereo not given),5.27
19,OCCCNCC(O)Cn1c2ccccc2c2ccccc21 (stereo not given),< 4.82
20,CCOC(=O)c1ccc(NC(=O)CC2C(=O)N(c3ccc(OC)cc3)C(=O)N2CCC(C)C)cc1 (stereo not given),< 4.82
21,COc1cc(C2CC(=O)NC3=C2C(=O)CC(c2ccc(F)cc2)C3)c(OC)cc1Br (stereo not given),< 4.82
22,C=CCN1C(=O)N(c2ccc(Cl)cc2)C(=O)C1CC(=O)Nc1ccc(F)cc1 (stereo not given),< 4.82
23,Nc1cccc(-c2nc3cc(Oc4ccc5[nH]c(-c6cccc(N)c6)nc5c4)ccc3[nH]2)c1,< 4.82
24,O=C(Nc1ccc(-c2nc3cc(-c4nc5cc(NC(=O)c6cccc7ccccc67)ccc5[nH]4)ccc3[nH]2)cc1)c1cccc2ccccc12,< 4.82
25,CC(C)CCn1cc(C(=O)NC(C)(C)C)c(=O)c(C(=O)N2CCN(C/C=C/c3ccccc3)CC2)c1,< 4.82
26,CCCCn1c(=N)n(CC(O)COc2ccc(Cl)cc2)c2ccccc21 (stereo not given),< 4.82
27,Cc1cc(C)c(C)c(Oc2cc(NC(=O)c3c(I)cnn3C)cc([N+](=O)[O-])c2)c1,6.28

row,SMILES,pEC50
1,N=c1n(CCN2CCOCC2)c2ccccc2n1CC(O)COc1ccc(Cl)cc1 (stereo not given),< 4.82
2,OC(CNC1CC1)Cn1c2ccccc2c2ccccc21 (stereo not given),< 4.82
3,O=C(NCC1CCCCC1)c1cn(C2CC2)cc(C(=O)NC2CCN(Cc3ccccc3)C2)c1=O (stereo not given),< 4.82
4,OCCC1CN(Cc2cc(Cl)ccc2O)CCN1CCc1ccccc1 (stereo not given),< 4.82
5,Cc1cc(C)nc(Nc2ncc(O)n2-c2cccc(C(F)(F)F)c2)n1,< 4.82
6,N=c1n(CCN2CCCCC2)c2ccccc2n1CC(O)COc1ccc(Cl)cc1Cl (stereo not given),5.53
7,O=C(Nc1ccc(-c2nc3ccccc3[nH]2)cc1)c1cncc(Br)c1,5.35
8,CCOC(=O)c1c(C)oc2cc(CN(C)C)c(O)cc12,5.29
9,COc1cc(C2CC(=O)NC3=C2C(=O)CC(c2ccc(OC)c(OC)c2)C3)c(OC)cc1Br (stereo not given),6.86
10,Cc1c(Cl)ccc2c(C(=O)NCCN3CCOCC3)cc(-c3ccncc3)nc12,< 4.82
11,Cc1ccc(NCC(O)Cn2c3ccccc3c3ccccc32)cc1 (stereo not given),< 4.82
12,CCc1cccc(NC(=O)/C=C/c2ccccc2Cl)c1,5.36
13,CCN(CC)CC(O)Cn1c2ccccc2c2ccccc21 (stereo not given),5.34
14,COc1ccc(NCC(O)Cn2c3ccc(Cl)cc3c3cc(Cl)ccc32)c(OC)c1 (stereo not given),< 4.82
15,Cc1ccc(NC(=O)/C=C/c2ccccc2Cl)cc1,5.46
16,O=C(NC1CCN(Cc2ccccc2)CC1)c1cc(-c2ccncc2)nc2ccc(Cl)cc12,5.54
17,COc1ccc(CC2(CO)CCN(S(=O)(=O)c3cccc(C(F)(F)F)c3)CC2)cc1,< 4.82
18,CCN1/C(=C/C=C/C=C/c2sc3ccccc3[n+]2CC(=O)O)Sc2ccccc21,< 4.82
19,CC(C)c1ccc(/C=C/C(=O)Nc2ccc(F)cc2)cc1,5.21
20,CC(C)(C)NCC(O)Cn1c2ccccc2c2ccccc21 (stereo not given),5.21
21,COc1ccc(CCN2C(=O)N(c3cccc(Cl)c3)C(=O)C2CC(=O)Nc2ccc(F)cc2)cc1 (stereo not given),< 4.82
22,CCOc1cc(C2C(C(=O)OCCOc3ccccc3)=C(C)NC3=C2C(=O)CC(c2ccc(Cl)cc2)C3)ccc1O (stereo not given),< 4.82
23,OC(CNCCOc1ccccc1)Cn1c2ccccc2c2ccccc21 (stereo not given),< 4.82
24,OC(CNC1CCCC1)COc1ccccc1-c1ccccc1 (stereo not given),< 4.82
25,CN1CCN(Cc2c(O)ccc3c(=O)c(-c4cccc5ccccc45)c(C(F)(F)F)oc23)CC1,< 4.82
26,Cc1ccc(NCC(O)Cn2c3ccc(Cl)cc3c3cc(Cl)ccc32)cc1 (stereo not given),5.28
27,CN(C)CC(O)Cn1c2ccc(Cl)cc2c2cc(Cl)ccc21 (stereo not given),< 4.82

row,SMILES,pEC50
1,OC(CNC1CCCCC1)Cn1c2ccccc2c2ccccc21 (stereo not given),5.33
2,CCCCn1c(=N)n(CC(O)c2ccc(OC)cc2)c2ccccc21 (stereo not given),< 4.82
3,Cc1ccc(C(=O)Cn2c(=N)n(CCN3CCCCC3)c3ccccc32)cc1,< 4.82
4,CCN1\C(=C/C=C(C)/C=C/c2sc3ccccc3[n+]2CC)Sc2ccccc21,5.34
5,O=S(=O)(/C=C/c1ccccc1)N1CCC(CO)(Cc2cccc(C(F)(F)F)c2)CC1,< 4.82
6,CCOc1cc(C2CC(=O)NC3=C2C(=O)CC(c2ccc(OC)c(OC)c2)C3)cc(Cl)c1O (stereo not given),6.68
7,CCOc1ccc(-c2nc3cc(C)ccc3[nH]2)cc1,5.12
8,CC(=O)Nc1ccc(-c2nc3cc(-c4nc5cc(NC(C)=O)ccc5[nH]4)ccc3[nH]2)cc1,6.5
9,N=c1n(CCN2CCOCC2)c2ccccc2n1CC(O)COc1ccccc1 (stereo not given),< 4.82
10,COc1ccc(C2CC(=O)NC3=C2C(=O)CC(c2ccc(OC)c(OC)c2)C3)c(OC)c1 (stereo not given),< 4.82
11,CCOC(=O)c1cnc2c(Cl)cccc2c1Nc1cccc(C(C)=O)c1,5.35
12,Oc1nc(/C=C/c2cccc3ccccc23)nc2ccccc12,< 4.82
13,Cc1cccc(NCC(O)Cn2c3ccccc3c3ccccc32)c1C (stereo not given),< 4.82
14,COc1ccccc1-c1c(C(F)(F)F)oc2c(CN3CCOCC3)c(O)ccc2c1=O,< 4.82
15,CCC(C(=O)Nc1cccc(-c2nc3ccccc3[nH]2)c1)c1ccccc1 (stereo not given),< 4.82
16,Cc1cccc(NCC(O)Cn2c3ccc(Cl)cc3c3cc(Cl)ccc32)c1 (stereo not given),5.35
17,Cc1cccc(NC(=O)CSc2nc(C)c(C)n2-c2ccccc2)c1C,< 4.82
18,CCOC(=O)C1=C(C)NC2=C(C(=O)CC(c3ccccc3)C2)C1c1cc(Cl)c(O)c(OC)c1 (stereo not given),< 4.82
19,O=C(CC1C(=O)N(c2cccc(F)c2)C(=O)N1CCc1ccccc1F)Nc1cccc(F)c1 (stereo not given),< 4.82
20,O=c1c2ccccc2nc(SCc2cn3ccccc3n2)n1Cc1ccco1,< 4.82
21,COC(=O)C1=C(C)NC2=C(C(=O)CC(c3ccc(Cl)cc3)C2)C1c1cccc(O)c1 (stereo not given),< 4.82
22,CCOc1ccc(NCC(O)Cn2c3ccc(Cl)cc3c3cc(Cl)ccc32)cc1 (stereo not given),5.13
23,CCCn1c(=N)n(CC(O)COc2ccc(Cl)cc2)c2ccccc21 (stereo not given),< 4.82
24,COC(=O)[C@@H](NC(=O)c1cn(C2CCCCC2)cc(C(=O)NC(C)(C)C)c1=O)c1ccccc1,< 4.82
